The values that follow come from US20250353891A1 (MEDIMMUNE LIMITED, priority 2022, published 2025).

Starred links: 1 amine or outer side, 2 acyl side, 3 side chain; linkers in the order of their positions; H or OH if unused. Non-standard residues stand in square brackets, D forms with d. Residues, ends and D or L forms follow the SMILES beside them. Groups on a side chain read outwards from the residue. *: point of attachment. C20 diacid = O=C(O)CCCCCCCCCCCCCCCCCCC(=O)*; C18 diacid = O=C(O)CCCCCCCCCCCCCCCCC(=O)*; γGlu = O=C(O)[C@H](CCC(=O)[*:2])N[*:1]; αMeF = C[C@](N)(Cc1ccccc1)C(=O)O; NMeQ = CN[C@@H](CCC(N)=O)C(=O)O; αMeQ = C[C@](N)(CCC(N)=O)C(=O)O; AEEA = NCCOCCOCC(=O)O; Aib = CC(C)(N)C(=O)O A value given as a limit tells only on which side of the number the result lay.

What is called EC50 is the concentration needed to bring the measured effect to its halfway point.

The target in assay [1] is human glucagon receptor (hGCGR) (Homo sapiens, UniProt P47871). Description: cAMP production (HTRF) in CHO cells expressing hGCGR. In kind it is cell-based. On the set-up: expressed in transfected cells. Particulars: Table 7, peptides modified at position 20; cAMP in CHO hGCGR cells; geometric mean; read-out: hGluc-R EC50. In outline: (§1)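 Cells were resuspended in assay buffer at batch-optimized density, typically 1×10^5 cells/mL for hGLP-1R and 2×10^5 cells/mL for hGCGR. After 30 min incubation at room temperature with compound, cAMP was measured by two-step HTRF. EC50 values came from 4-parameter logistic fits of % Delta F.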

Assay [2] concerns the target human GLP-1 receptor (hGLP-1R) (Homo sapiens, UniProt P43220). Description: cAMP production (HTRF) in CHO cells expressing hGLP-1R. As to conditions: for EC50: Table 7, peptides modified at position 20, cAMP in CHO hGLP-1R cells, geometric mean, read-out: hGLP-1R EC50; for % Relative Potency Ratio: Table 7, % GLP-1R activity relative to GLP-1 / % GlucR activity relative to glucagon. Set-up: expressed in transfected cells. In kind it is cell-based. In outline:
as §1
In general terms: Cyclic AMP is a second messenger, typically raised through Gs and lowered through Gi signalling.

human glucagon receptor (hGCGR), sequence (P47871 26-477): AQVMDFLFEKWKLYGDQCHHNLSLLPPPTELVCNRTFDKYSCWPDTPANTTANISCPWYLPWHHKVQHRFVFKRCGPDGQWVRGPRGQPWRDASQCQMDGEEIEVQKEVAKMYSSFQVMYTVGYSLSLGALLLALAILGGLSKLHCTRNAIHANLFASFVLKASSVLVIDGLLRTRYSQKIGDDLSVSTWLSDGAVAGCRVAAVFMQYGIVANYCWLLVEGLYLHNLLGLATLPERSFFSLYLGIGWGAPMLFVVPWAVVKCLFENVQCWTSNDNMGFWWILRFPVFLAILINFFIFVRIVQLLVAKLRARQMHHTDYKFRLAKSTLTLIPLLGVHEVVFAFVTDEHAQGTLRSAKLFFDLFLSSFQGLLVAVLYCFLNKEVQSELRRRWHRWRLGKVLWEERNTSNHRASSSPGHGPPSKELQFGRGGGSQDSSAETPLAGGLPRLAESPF
human GLP-1 receptor (hGLP-1R), sequence (P43220 24-463): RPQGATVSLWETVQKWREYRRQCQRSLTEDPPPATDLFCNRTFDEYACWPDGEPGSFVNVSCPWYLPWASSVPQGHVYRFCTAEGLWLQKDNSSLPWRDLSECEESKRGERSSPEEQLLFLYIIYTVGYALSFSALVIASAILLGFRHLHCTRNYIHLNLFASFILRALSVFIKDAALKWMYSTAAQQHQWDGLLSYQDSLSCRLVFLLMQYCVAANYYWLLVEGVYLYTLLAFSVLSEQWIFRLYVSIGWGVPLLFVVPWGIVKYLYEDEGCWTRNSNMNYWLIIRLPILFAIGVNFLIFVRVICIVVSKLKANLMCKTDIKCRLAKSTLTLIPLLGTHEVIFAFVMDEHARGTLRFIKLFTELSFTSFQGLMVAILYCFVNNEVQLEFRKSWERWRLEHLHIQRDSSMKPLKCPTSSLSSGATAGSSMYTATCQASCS

As for `CC(C)C[C@H](NC(=O)C(C)(C)NC(=O)[C@H](CCC(N)=O)NC(=O)[C@@H](NC(=O)[C@H](Cc1ccccc1)NC(=O)[C@H](CC(=O)O)NC(=O)[C@H](CCCCNC(=O)COCCOCCNC(=O)COCCOCCNC(=O)CC[C@H](NC(=O)CCCCCCCCCCCCCCCCC(=O)O)C(=O)O)NC(=O)[C@H](C)NC(=O)[C@H](C)NC(=O)[C@H](CCCNC(=N)N)NC(=O)[C@H](CO)NC(=O)[C@H](CC(=O)O)NC(=O)[C@H](CC(C)C)NC(=O)[C@](C)(Cc1ccccc1)NC(=O)[C@H](CCCCN)NC(=O)[C@H](CO)NC(=O)[C@@H](NC(=O)[C@H](CC(=O)O)NC(=O)[C@H](CO)NC(=O)[C@@H](NC(=O)[C@H](Cc1ccccc1)NC(=O)[C@@H](NC(=O)CNC(=O)[C@H](CCC(N)=O)NC(=O)C(C)(C)NC(=O)[C@@H](N)Cc1c[nH]cn1)[C@@H](C)O)[C@@H](C)O)C(C)C)C(C)C)C(=O)N[C@H](C(=O)N[C@@H](C)C(=O)N[C@H](C(N)=O)[C@@H](C)O)C(C)C` [Peptide 315], in assay [1], the EC50 amounted to 5.85 nM. In addition, in assay [2], the EC50 worked out at 0.0181 nM and the “% Relative Potency Ratio” value came to 639.1.

Consider `CC[C@H](C)[C@H](NC(=O)[C@H](Cc1c[nH]c2ccccc12)NC(=O)[C@H](CCC(N)=O)NC(=O)[C@@H](NC(=O)[C@H](Cc1ccccc1)NC(=O)[C@H](CC(=O)O)NC(=O)[C@H](CCCCNC(=O)COCCOCCNC(=O)COCCOCCNC(=O)CC[C@H](NC(=O)CCCCCCCCCCCCCCCCC(=O)O)C(=O)O)NC(=O)[C@H](C)NC(=O)[C@H](C)NC(=O)[C@H](CCCNC(=N)N)NC(=O)[C@H](CO)NC(=O)[C@H](CC(=O)O)NC(=O)[C@H](CC(C)C)NC(=O)[C@](C)(Cc1ccccc1)NC(=O)[C@H](CCCCN)NC(=O)[C@H](CO)NC(=O)[C@@H](NC(=O)[C@H](CC(=O)O)NC(=O)[C@H](CO)NC(=O)[C@@H](NC(=O)[C@H](Cc1ccccc1)NC(=O)[C@@H](NC(=O)CNC(=O)[C@H](CCC(N)=O)NC(=O)[C@](C)(CO)NC(=O)[C@@H](N)Cc1c[nH]cn1)[C@@H](C)O)[C@@H](C)O)C(C)C)C(C)C)C(=O)N[C@@H](C)C(=O)N[C@@H](CC(N)=O)C(=O)N[C@H](C(N)=O)[C@@H](C)O` [Peptide 318], for which the half-maximal effective concentration (EC50) worked out at 12 nM in assay [1] and 0.0553 nM in assay [2]. The “% Relative Potency Ratio” value in assay [2] came to 429.7.

As to `CC[C@H](C)[C@H](NC(=O)C(C)(C)NC(=O)[C@H](CCC(N)=O)NC(=O)[C@@H](NC(=O)[C@](C)(Cc1ccccc1)NC(=O)[C@H](CC(=O)O)NC(=O)[C@H](CCCCNC(=O)COCCOCCNC(=O)COCCOCCNC(=O)CC[C@H](NC(=O)CCCCCCCCCCCCCCCCC(=O)O)C(=O)O)NC(=O)[C@H](C)NC(=O)[C@H](C)NC(=O)[C@H](CCCNC(=N)N)NC(=O)[C@H](CO)NC(=O)[C@H](CC(=O)O)NC(=O)[C@H](CC(C)C)NC(=O)[C@](C)(Cc1ccccc1)NC(=O)[C@H](CCCCN)NC(=O)[C@H](CO)NC(=O)[C@@H](NC(=O)[C@H](CC(=O)O)NC(=O)[C@H](CO)NC(=O)[C@@H](NC(=O)[C@](C)(Cc1ccccc1)NC(=O)[C@H](CO)NC(=O)CNC(=O)[C@H](CCC(N)=O)NC(=O)C(C)(C)NC(=O)[C@@H](N)Cc1c[nH]cn1)[C@@H](C)O)C(C)C)C(C)C)C(=O)N[C@@H](C)C(=O)N[C@@H](CC(N)=O)C(=O)N[C@H](C(N)=O)[C@@H](C)O` [Peptide 321] (H-H[Aib]QGS[αMeF]TSDVSK[αMeF]LDSRAAK([AEEA-AEEA-γGlu-C18 diacid])D[αMeF]VQ[Aib]IANT-NH2), in assay [1], the half-maximal effective concentration (EC50) came to 4.4 nM. Besides, in assay [2], the EC50 was found to be 0.0226 nM and the “% Relative Potency Ratio” value was found to be 384.7.

Turning to `CC[C@H](C)[C@H](NC(=O)C(C)(C)NC(=O)[C@H](CCC(N)=O)NC(=O)[C@@H](NC(=O)[C@](C)(Cc1ccccc1)NC(=O)[C@H](CC(=O)O)NC(=O)[C@H](CCCCNC(=O)COCCOCCNC(=O)COCCOCCNC(=O)CC[C@H](NC(=O)CC[C@H](NC(=O)CCCCCCCCCCCCCCCCCCC(=O)O)C(=O)O)C(=O)O)NC(=O)[C@H](C)NC(=O)[C@H](C)NC(=O)[C@H](CCCNC(=N)N)NC(=O)[C@H](CO)NC(=O)[C@H](CC(=O)O)NC(=O)[C@H](CC(C)C)NC(=O)[C@](C)(Cc1ccccc1)NC(=O)[C@H](CCCCN)NC(=O)[C@H](CO)NC(=O)[C@@H](NC(=O)[C@H](CC(=O)O)NC(=O)[C@H](CO)NC(=O)[C@@H](NC(=O)[C@](C)(Cc1ccccc1)NC(=O)[C@H](CO)NC(=O)CNC(=O)[C@H](CCC(N)=O)NC(=O)C(C)(C)NC(=O)[C@@H](N)Cc1c[nH]cn1)[C@@H](C)O)C(C)C)C(C)C)C(=O)N[C@@H](C)C(=O)N[C@@H](CC(N)=O)C(=O)N[C@H](C(N)=O)[C@@H](C)O` [Peptide 322] (H-H[Aib]QGS[αMeF]TSDVSK[αMeF]LDSRAAK([AEEA-AEEA-γGlu-γGlu-C20 diacid])D[αMeF]VQ[Aib]IANT-NH2), the concentration giving a half-maximal response (EC50) is above 24.7 nM in assay [1] and 0.0683 nM in assay [2].

As to `CC[C@H](C)[C@H](NC(=O)C(C)(C)NC(=O)[C@H](CCC(N)=O)NC(=O)[C@@H](NC(=O)[C@](C)(Cc1ccccc1)NC(=O)[C@H](CC(=O)O)NC(=O)[C@H](CCCCNC(=O)COCCOCCNC(=O)COCCOCCNC(=O)CC[C@H](NC(=O)CCCCCCCCCCCCCCCCC(=O)O)C(=O)O)NC(=O)[C@H](C)NC(=O)[C@H](C)NC(=O)[C@H](CCCNC(=N)N)NC(=O)[C@H](CO)NC(=O)[C@H](CC(=O)O)NC(=O)[C@H](CC(C)C)NC(=O)[C@](C)(Cc1ccccc1)NC(=O)[C@H](CCCCN)NC(=O)[C@H](CO)NC(=O)[C@@H](NC(=O)[C@H](CC(=O)O)NC(=O)[C@H](CO)NC(=O)[C@@H](NC(=O)[C@](C)(Cc1ccccc1)NC(=O)[C@H](CO)NC(=O)CNC(=O)[C@](C)(CCC(N)=O)NC(=O)[C@H](CO)NC(=O)[C@@H](N)Cc1c[nH]cn1)[C@@H](C)O)C(C)C)C(C)C)C(=O)N[C@@H](C)C(=O)N[C@@H](CC(N)=O)C(=O)N[C@H](C(N)=O)[C@@H](C)O` [Peptide 323] (H-HS[αMeQ]GS[αMeF]TSDVSK[αMeF]LDSRAAK([AEEA-AEEA-γGlu-C18 diacid])D[αMeF]VQ[Aib]IANT-NH2), the figures for the 50% effective concentration (EC50) in assay [1] and in assay [2] were above 25.6 nM and 11.4 nM, respectively.

For `CC[C@H](C)[C@H](NC(=O)C(C)(C)NC(=O)[C@H](CCC(N)=O)NC(=O)[C@@H](NC(=O)[C@](C)(Cc1ccccc1)NC(=O)[C@H](CC(=O)O)NC(=O)[C@H](CCCCNC(=O)COCCOCCNC(=O)COCCOCCNC(=O)CC[C@H](NC(=O)CCCCCCCCCCCCCCCCC(=O)O)C(=O)O)NC(=O)[C@H](C)NC(=O)[C@H](C)NC(=O)[C@H](CCCNC(=N)N)NC(=O)[C@H](CO)NC(=O)[C@H](CC(=O)O)NC(=O)[C@H](CC(C)C)NC(=O)[C@](C)(Cc1ccccc1)NC(=O)[C@H](CCCCN)NC(=O)[C@H](CO)NC(=O)[C@@H](NC(=O)[C@H](CC(=O)O)NC(=O)[C@H](CO)NC(=O)[C@@H](NC(=O)[C@](C)(Cc1ccccc1)NC(=O)[C@H](CO)NC(=O)CNC(=O)[C@H](CCC(N)=O)N(C)C(=O)[C@H](CO)NC(=O)[C@@H](N)Cc1c[nH]cn1)[C@@H](C)O)C(C)C)C(C)C)C(=O)N[C@@H](C)C(=O)N[C@@H](CC(N)=O)C(=O)N[C@H](C(N)=O)[C@@H](C)O` [Peptide 325] (H-HS[NMeQ]GS[αMeF]TSDVSK[αMeF]LDSRAAK([AEEA-AEEA-γGlu-C18 diacid])D[αMeF]VQ[Aib]IANT-NH2), the EC50 in assay [1] is above 25.5 nM; in assay [2] it was 0.929 nM.
